From patent publication US20240000777A1, “USE OF AN ERK INHIBITOR FOR THE TREATMENT OF MYELOFIBROSIS” (Novartis AG, priority 2020, published 2024) come the findings set out here.

Assay [1] concerns JAK2V617F PV/MF mouse model. It counts as in vivo. As to conditions: oral, 14 consecutive days, ruxolitinib 60 mg/kg BID, Compound A 75 mg/kg QD.
The subject of assay [2] is Jak2V617F Erk1-/- Erk2 fl/fl Mx-Cre mice. The assay can be described thus: Genetic deletion of ERK1/2 plus ruxolitinib in Jak2V617F MPN mouse model. It counts as in vivo. As to conditions: ruxolitinib for 2 weeks combined with ERK1/2 deletion. From the text: Jak2V617F Mx-Cre mouse was crossed with Erk1−/− Erk2 fl/fl Mx-Cre mice to genetically delete ERK1/2 to obtain Jak2V617F Erk1−/− Erk2 fl/fl Mx-Cre offspring.

Regarding `CNC[C@@H](NC(=O)c1ccc(-c2nc([C@H]3CC[C@H](O)[C@@H](F)C3)cnc2N)cc1F)c1cc(F)cc(Br)c1` [Compound A, 4-(3-amino-6-((1S,3S,4S)-3-fluoro-4-hydroxycyclohexyl)pyrazin-2-yl)-N—((S)-1-(3-bromo-5-fluorophenyl)-2-(methylamino)ethyl)-2-fluorobenzamide], the polycythemia entry in assay [1] is listed as “significantly normalizes”. For the same compound, the elevated hematocrit entry in assay [1] (FIG. 3A) is recorded as “significantly normalizes”. Further, the splenomegaly result in assay [1] (FIG. 3B) is given as “significantly normalizes”.

`N#CC[C@H](C1CCCC1)n1cc(-c2ncnc3[nH]ccc23)cn1` [ruxolitinib, (R)-3-(4-(7H-pyrrolo[2,3-d]pyrimidin-4-yl)-1H-pyrazol-1-yl)-3-cyclopentylpropanenitrile]: the “normalizing red blood cell count” value in assay [2] (FIG. 7B) is given as “more effective”. Moreover, in assay [2] (versus single interventions, FIG. 7A), the “reducing the mutant clone” value is “more effective”.
